Assay results published in PubChem BioAssay AID226 (DTP/NCI, 2004).
Where “and” joins values, the source holds several entries; their conditions need not be identical. Identical values can stand only once. Toxic doses and inconclusive results are not listed. How the source made its calls: active means survival T/C of 150% or more; inactive means T/C below 125% in these data.

System: B6C3F1 mice, intracerebral ependymoblastoma, median survival T/C
Assay: NCI In Vivo Anticancer Drug Screen. Data for tumor model Ependymoblastoma (intracerebral) in B6C3F1 mice
Conditions: endpoint: median survival time, higher = longer survival
Procedure: The antitumor activity of compounds was measured in mice bearing transplantable tumors. Survival or tumor size were measured and the results are expressed as the measurement made in the treated group (T) divided by the measurement made in the vehicle treated control group (C). The tumor model used in this assay is Ependymoblastoma (intracerebral) in B6C3F1 mice

Measured: T/C

CC1CCC(NC(=O)N(CCCl)N=O)CC1 (stereo unspecified)
active: dose: 2.0 mg/kg/injection, schedule: Q01DX005 (ip), vehicle: other 160 % of control | dose: 8.0 mg/kg/injection, schedule: Q01DX005 (ip), vehicle: other 160 % of control | dose: 16.0 mg/kg/injection, schedule: Q01DX005 (ip), vehicle: other 300 % of control | dose: 25.0 mg/kg/injection, schedule: Q01DX001 (ip), vehicle: saline + alcohol 182 % of control | dose: 50.0 mg/kg/injection, schedule: Q01DX001 (ip), vehicle: saline + alcohol 235 % of control | dose: 64.0 mg/kg/injection, schedule: Q01DX001 (ip), vehicle: other 191 % of control | dose: 128.0 mg/kg/injection, schedule: Q01DX001 (ip), vehicle: other 204 % of control
inactive: dose: 0.5 mg/kg/injection, schedule: Q01DX009 (ip), vehicle: Klucel (hydroxypropylcellulose) (HPC) 108 % of control | dose: 1.0 mg/kg/injection, schedule: Q01DX005 (ip), vehicle: other 110 % of control | dose: 1.0 mg/kg/injection, schedule: Q01DX009 (ip), vehicle: Klucel (hydroxypropylcellulose) (HPC) 106 % of control | dose: 2.0 mg/kg/injection, schedule: Q01DX005 (ip), vehicle: saline 102 % of control | dose: 2.0 mg/kg/injection, schedule: Q01DX009 (ip), vehicle: Klucel (hydroxypropylcellulose) (HPC) 112 % of control | dose: 4.0 mg/kg/injection, schedule: Q01DX005 (ip), vehicle: other 119 % of control | dose: 4.0 mg/kg/injection, schedule: Q01DX005 (ip), vehicle: saline 108 % of control | dose: 6.25 mg/kg/injection, schedule: Q01DX001 (ip), vehicle: saline + alcohol 118 % of control | dose: 8.3 mg/kg/injection, schedule: Q01DX001 (ip), vehicle: DMSO 104 % of control | dose: 13.8 mg/kg/injection, schedule: Q01DX001 (ip), vehicle: DMSO 108 % of control | dose: 16.0 mg/kg/injection, schedule: Q01DX001 (ip), vehicle: other 124 % of control | dose: 23.0 mg/kg/injection, schedule: Q01DX001 (ip), vehicle: DMSO 122 % of control | dose: 38.4 mg/kg/injection, schedule: Q01DX001 (ip), vehicle: DMSO 112 % of control | dose: 64.0 mg/kg/injection, schedule: Q01DX001 (ip), vehicle: DMSO 118 % of control

NC(=S)N/N=C/c1ccc(O)cn1
inactive: dose: 12.0 mg/kg/injection, schedule: Q01DX005 (ip), vehicle: saline 102 % of control | dose: 24.0 mg/kg/injection, schedule: Q01DX005 (ip), vehicle: saline 107 % of control | dose: 48.0 mg/kg/injection, schedule: Q01DX005 (ip), vehicle: saline 110 % of control | dose: 96.0 mg/kg/injection, schedule: Q01DX005 (ip), vehicle: saline 115 % of control

CSc1nc(N)nc2c1ncn2C1OC(CO)C(O)C1O (stereo unspecified)
inactive: dose: 50.0 mg/kg/injection, schedule: Q01DX005 (ip), vehicle: suspension in saline 108 % of control | dose: 100.0 mg/kg/injection, schedule: Q01DX005 (ip), vehicle: suspension in saline 109 % of control | dose: 200.0 mg/kg/injection, schedule: Q01DX005 (ip), vehicle: suspension in saline 100 % of control | dose: 400.0 mg/kg/injection, schedule: Q01DX005 (ip), vehicle: suspension in saline 96 % of control

Nc1nc(=S)c2ncn(C3OC(COC(=O)c4ccc(Cl)cc4)C(OC(=O)c4ccc(Cl)cc4)C3OC(=O)c3ccc(Cl)cc3)c2[nH]1 (stereo unspecified)
inactive: dose: 18.75 mg/kg/injection, schedule: Q01DX005 (ip), vehicle: Klucel (hydroxypropylcellulose) (HPC) 101 % of control | dose: 37.5 mg/kg/injection, schedule: Q01DX005 (ip), vehicle: Klucel (hydroxypropylcellulose) (HPC) 102 % of control | dose: 75.0 mg/kg/injection, schedule: Q01DX005 (ip), vehicle: Klucel (hydroxypropylcellulose) (HPC) 98 % of control and 115 % of control

Cn1cnc([N+](=O)[O-])c1Sc1nc(N)nc2c1ncn2C1OC(CO)C(O)C1O (stereo unspecified)
inactive: dose: 6.25 mg/kg/injection, schedule: Q01DX005 (ip), vehicle: suspension in saline 109 % of control | dose: 12.5 mg/kg/injection, schedule: Q01DX005 (ip), vehicle: suspension in saline 115 % of control | dose: 25.0 mg/kg/injection, schedule: Q01DX005 (ip), vehicle: suspension in saline 107 % of control

O=C(O)c1ccc(C(=O)O)c(C(=O)O)c1.[NH-]C1CCCCC1[NH-].[Pt+2]
inactive: dose: 0.25 mg/kg/injection, schedule: Q01DX005 (ip), vehicle: dextrose 92 % of control and 101 % of control | dose: 0.5 mg/kg/injection, schedule: Q01DX005 (ip), vehicle: dextrose 100 % of control and 118 % of control | dose: 1.0 mg/kg/injection, schedule: Q01DX005 (ip), vehicle: dextrose 95 % of control and 100 % of control | dose: 2.0 mg/kg/injection, schedule: Q01DX005 (ip), vehicle: dextrose 100 % of control and 105 % of control | dose: 4.0 mg/kg/injection, schedule: Q01DX005 (ip), vehicle: dextrose 98 % of control and 114 % of control

CN1C(=O)CC(c2ccc(NC(=O)N(CCCl)N=O)cc2)C1=O (stereo unspecified)
active: dose: 1.5 mg/kg/injection, schedule: Q01DX005 (ip), vehicle: distilled water + Tween-80 180 % of control | dose: 6.0 mg/kg/injection, schedule: Q01DX005 (ip), vehicle: distilled water + Tween-80 210 % of control | dose: 12.0 mg/kg/injection, schedule: Q01DX005 (ip), vehicle: distilled water + Tween-80 240 % of control
inactive: dose: 0.75 mg/kg/injection, schedule: Q01DX005 (ip), vehicle: distilled water + Tween-80 119 % of control

CCCN(C)/N=N/c1nc[nH]c1C(N)=O
inactive: dose: 4.0 mg/kg/injection, schedule: Q01DX005 (ip), vehicle: saline with Tween-80 112 % of control | dose: 8.0 mg/kg/injection, schedule: Q01DX005 (ip), vehicle: saline with Tween-80 124 % of control
